This is an account of results in article PMC9403987 (Frontiers in Oncology, 2022).

In one series the test system is BN2289. In words: Subcutaneous BN2289 glioblastoma xenograft. The series is classed as in vivo, BALB/c nude mice. The following applies: 25 mg/kg daily oral, 28 days, measured day 21. On the procedure:
(§1) The efficacy of GLR2007 was evaluated in human GBM and breast cancer orthotopic cell-line-derived xenografts in NOD/SCID mice (Shanghai Lingchang Biotechnology Co. Ltd, Shanghai, China) and BALB/c nude mice (Shanghai Sino-British SIPPR/BK Laboratory Animal Co. Ltd, Shanghai, China), and human lung, colorectal, and liver cancer subcutaneous cell-line-derived xenografts in BALB/c nude mice (Nanjing University National Resource Center, Nanjing, China, or Beijing Anikeeper Biotech Co., Beijing, China). Mice were maintained in humidity- and temperature-controlled conditions with food and water available ad libitum. For subcutaneous models, female BALB/c nude mice were inoculated at 4–8 weeks old with 3×10^6–1×10^7 tumor cells (see Table 1 for xenograft model cell types) in the right flank for tumor development. Randomization was performed when the mean tumor volume reached 118–171 mm^3.

The test system of the next series is MCF-7 tumor cells. The series is described as follows: Orthotopic MCF-7 breast cancer xenograft. In kind it is in vivo, NOD/SCID mice. The following applies: 25 mg/kg daily oral. On the procedure:
as §1, with “libitum.” for “libitum. For subcutaneous models, female BALB/c nude mice were inoculated at 4–8 weeks old with 3×10^6–1×10^7 tumor cells (see Table 1 for xenograft model cell types) in the right flank for tumor development. Randomization was performed when the mean tumor volume reached 118–171 mm^3.”
In two breast cancer orthotopic xenograft models, female NOD/SCID mice were subcutaneously implanted with an estrogen pellet (17β-estradiol; Innovative Research of America, Sarasota, FL, USA) one day before tumor inoculation. Mice were inoculated at 6–7 weeks old with 2×10^7 MCF-7 tumor cells plus Matrigel in a 1:1 ratio in PBS at a mammary fat pad or in the right flank. Randomization was performed when the mean tumor volume reached 135–138 mm^3.

The next series has as its system NCI-H1975. The series is described as follows: Subcutaneous NCI-H1975 non-small cell lung cancer xenograft. In kind it is in vivo, BALB/c nude mice. To be noted: 25 mg/kg daily oral, 22 days, measured day 16. Here is the method: as §1
In the next series the test system is COLO 205. In words: Subcutaneous COLO 205 colorectal cancer xenograft. The series is classed as in vivo, BALB/c nude mice. To be noted: 25 mg/kg daily oral, 26 days, measured day 25. On the procedure:
as §1

In another series the test system is LI1088. The series is described as follows: Subcutaneous LI1088 liver cancer xenograft. In kind it is in vivo, BALB/c nude mice. To be noted: 25 mg/kg daily oral, 28 days, measured day 25. Here is the method:
as §1

Details of series [1]: method as in PMID 26149830, PMID 20354191. The following applies: within 5 minutes after intravenous administration of 1 mg/kg; cited from earlier work.
The conditions of series [2]: mouse, in vivo, po, 100 mg/kg; cited from earlier work.

Consider `CC(=O)c1c(C)c2cnc(Nc3ccc(N4CCNCC4)cn3)nc2n(C2CCCC2)c1=O` [Palbociclib, palbociclib, reference compound], for which the “TGI (%)” value was determined as 34.0% in the series on BN2289; 45.5% in the series on MCF-7 tumor cells (21 days, measured day 21, 8 mice); 77.7% with MCF-7 tumor cells (28 days, measured day 25, 10 mice); 33.6% with NCI-H1975; 52.9% in the series on COLO 205; 16.4% with LI1088. Besides, the “unbound brain-to-plasma partition coefficient (Kp,uu)” value in series [1] is reported as 0.01.

With `CN(C)C(=O)c1cc2cnc(Nc3ccc(N4CCNCC4)cn3)nc2n1C1CCCC1` [ribociclib], in series [2], the “Kp,uu” value is on record as 0.105.
